{"source": "patent US11273161B2", "about": "“Methods of treating autism spectrum disorders” (The Broad Institute, Inc., priority 2016, dated 2022)", "key": {"ADSS [1]": {"test_system": "ADSS", "assay": "Western blot of ADSS protein levels in neurons after proteasome or Cullin inhibition", "format": "cell-based, mouse", "settings": "neurons from Kctd13Δ47 mice, treated 5 hours with 2 μM, FIG. 5", "text": "Protein lysates were generated from mouse neurons prepared from wildtype or Kctd13Δ47 mice. C57B6 timed pregnant females were euthanized following IACUC approved method. E18 embryos were collected and rapidly decapitated. Embryos were then washed in dissection media (Hibernate-E (Hib-E, Gibco) supplemented with 100 U/mL penicillin streptomycin (Pen/Strep, Gibco)). Brains were isolated, cortices were separated from the midbrain and meninges was removed from each cortex. Each cortex was cut into six pieces; five cortices were pooled for dissociation. To dissociate 5 cortices, one Papain kit (Worthington LK3176) was reconstituted in 5 mLs Hib-E and activated at 37° C. for 10 minutes. Following activation, DNAse I (Sigma) was added to a concentration of 10 μg/mL and filter sterilized using a 0.22 μm filter. Cortices were washed twice with 5 mLs of Hib-E and 5 mLs of activated papain/DNAseI was added to the cortices and incubated for 8 minutes at 37° C. Following digestion, cortices were washed three times with 10 ml Hib-E per wash. Cortices were then triturated 10-15 times with a P1000 pipette in 1 mL NBActive4 supplemented with 10 μg/mL DNAseI filter sterilized using a 0.22 μm filter. […] Cells were counted in a hemocytometer, diluted and plated at 1 million cells/well in a 6 well poly-D-lysine (Corning, Biocoat) or 6 million cells/10 cm poly-D-lysine plate (Corning, Biocoat). […]"}, "ADSS [2]": {"target": "T1, ADSS (Mus musculus, UniProt P46664)", "T1 construct": "endogenous in cells; host or cells: primary mouse neurons, DIV21 (WT in A3; WT and Kctd13Δ47 in A4)", "T1 sequence (P46664 whole entry)": "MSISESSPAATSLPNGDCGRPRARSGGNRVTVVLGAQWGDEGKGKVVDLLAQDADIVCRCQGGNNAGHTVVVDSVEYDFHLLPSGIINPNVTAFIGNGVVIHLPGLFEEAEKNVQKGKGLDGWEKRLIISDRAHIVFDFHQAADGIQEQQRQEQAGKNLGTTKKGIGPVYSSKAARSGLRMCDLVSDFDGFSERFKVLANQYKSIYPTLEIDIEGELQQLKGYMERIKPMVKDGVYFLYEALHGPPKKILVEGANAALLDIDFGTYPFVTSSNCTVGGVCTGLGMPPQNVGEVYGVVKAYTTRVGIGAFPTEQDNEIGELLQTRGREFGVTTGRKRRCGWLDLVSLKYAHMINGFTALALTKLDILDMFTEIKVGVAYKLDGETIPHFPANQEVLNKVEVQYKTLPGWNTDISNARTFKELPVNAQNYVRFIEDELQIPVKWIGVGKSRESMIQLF", "assay": "Dose-response of IMP levels in cell lysates of DIV21 neurons from WT mice", "format": "cell-based", "settings": "FIG. 20", "experimental": "FIGS. 20A-B show IMP levels in cell lysates of DIV21 neurons from WT mice following treatment with D, L-alanosine or L-alanosine, or untreated (U).\n16p11.2 deletion patient fibroblast samples were acquired from the Simons Foundation VIP collection. For comparison, fibroblasts from unaffected individuals were obtained from Mclean Hospital collection of primary fibroblasts (Cohen, Ongur, McPhee). Fibroblasts were grown in DMEM supplemented with 10% serum (Gibco). For metabolic experiments, 160,000 cells/well were plated in DMEM (Gibco) supplemented with 10% fetal bovine serum (Gibco) in 12 well plates. […]\nNext, metabolic changes were determined between 16p11.2 deletion patient fibroblasts compared with control fibroblasts. […]\n(§1) Raw data were processed using MultiQuant 1.2 software (AB SCIEX) for automated LC-MS peak integration. […] Internal standard peak areas were monitored for quality control, to assess system performance over time, and to identify any outlier samples requiring re-analysis. A pooled plasma reference sample was also analyzed after sets of 20 study samples as an additional quality control measure of analytical performance and to serve as reference for scaling raw LC-MS peak areas across sample batches. […]\nNext, purine metabolites were assessed in cell lysates and supernatants of cultured neurons from wild-type and kctd13Δ47 mice. […]"}, "ADSS [3]": {"target": "T2, ADSS (Homo sapiens, UniProt P30520)", "T2 construct": "fibroblasts from unaffected individuals were obtained from Mclean Hospital collection of primary fibroblasts; endogenous in cells; host or cells: primary human control fibroblasts (McLean Hospital collection)", "T2 sequence (P30520 whole entry)": "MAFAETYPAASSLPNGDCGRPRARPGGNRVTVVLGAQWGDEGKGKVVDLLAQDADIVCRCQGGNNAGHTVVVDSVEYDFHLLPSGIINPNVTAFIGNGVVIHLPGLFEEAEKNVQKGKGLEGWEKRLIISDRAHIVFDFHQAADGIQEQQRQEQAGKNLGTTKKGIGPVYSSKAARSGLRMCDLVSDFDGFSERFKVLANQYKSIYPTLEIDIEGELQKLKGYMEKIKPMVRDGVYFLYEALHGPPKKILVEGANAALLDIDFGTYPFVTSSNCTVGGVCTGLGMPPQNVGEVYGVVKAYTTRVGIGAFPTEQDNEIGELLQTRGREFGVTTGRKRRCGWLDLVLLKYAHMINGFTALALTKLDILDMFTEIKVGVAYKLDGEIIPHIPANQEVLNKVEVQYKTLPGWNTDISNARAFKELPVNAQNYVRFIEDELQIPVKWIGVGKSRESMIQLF", "assay": "LC-MS purine metabolite levels in human control fibroblast cell lysates after ADSS inhibition", "format": "cell-based", "settings": "human control fibroblasts, 12 hours, 10 mg/mL, FIG. 19", "experimental": "(§2) 16p11.2 deletion patient fibroblast samples were acquired from the Simons Foundation VIP collection. For comparison, fibroblasts from unaffected individuals were obtained from Mclean Hospital collection of primary fibroblasts (Cohen, Ongur, McPhee). Fibroblasts were grown in DMEM supplemented with 10% serum (Gibco). For metabolic experiments, 160,000 cells/well were plated in DMEM (Gibco) supplemented with 10% fetal bovine serum (Gibco) in 12 well plates. For neurons, 1 million primary mouse neurons/well were plated in 6 well plates and were extracted similar to fibroblasts as described below except volumes were doubled to accommodate the extra surface area.\nNext, metabolic changes were determined between 16p11.2 deletion patient fibroblasts compared with control fibroblasts. For metabolite extraction, samples were collected from either cells or the cell media. Cell samples were extracted from cells grown in 12 well plates. Cell samples were extracted by washing cells once with 1 mL ice-cold PBS, transferring to dry ice, followed by adding 400 μL of 80% methanol (VWR) containing the internal standards inosine-^15N4, thymine-d4, and glycocholate-d4 (Cambridge Isotope Laboratories). Cells were then incubated for 15 minutes at −80° C., followed by scraping and transfer of the methanol and cells to a 1.5 mL tube. Cells were centrifuged (10 min, 9,000 g, 4° C.), and the supernatant was transferred to a new 1.5 mL tube. The pellet was extracted again with 50 μL of 80% methanol containing internal standards and centrifuged. The supernatant was then pooled with the previously collected methanol sample. Media supernatant samples (30 μL) were extracted using 120 μL of 80% methanol (VWR) containing the internal standards inosine-^15N4, thymine-d4, and glycocholate-d4 (Cambridge Isotope Laboratories). The samples were centrifuged (10 min, 9,000 g, 4° C.). The resulting supernatant was transferred to a new tube. Samples were stored at −80° C. until analysis.\nA method using basic hydrophilic interaction chromatography (HILIC) separation and negative ionization mode MS detection was established on an LC-MS system consisting of an ACQUITY UPLC (Waters Inc.) coupled to a 5500 QTRAP triple quadrupole mass spectrometer (AB SCIEX). […]\nas §1"}, "ADSS [4]": {"target": "T1, ADSS", "assay": "S-Ado levels in cultured neurons from kctd13Δ47 mice contacted with L-alanosine", "format": "cell-based", "settings": "increasing concentrations (0, 0.01, 0.1 μM), FIG. 22", "experimental": "as §2\nNext, metabolic changes were determined between 16p11.2 deletion patient fibroblasts compared with control fibroblasts. For metabolite extraction, samples were collected from either cells or the cell media. […]\nas §1"}}}
{"smiles": "NS(=O)(=O)OC[C@@H]1C[C@@H](n2ccc3c(N[C@H]4CCc5ccccc54)ncnc32)C[C@@H]1O", "note": "[MLN4924]", "values": [{"measurement": "change in ADSS levels", "setting": "ADSS [1]", "value": "no change"}]}
{"smiles": "CC(C)C[C@H](NC(=O)[C@H](Cc1ccccc1)NC(=O)c1cnccn1)B(O)O", "note": "[bortezomib]", "values": [{"measurement": "change in ADSS levels", "setting": "ADSS [1]", "value": "no change"}]}
{"smiles": "NC(CN(O)N=O)C(=O)O", "note": "(racemic) [D,L-alanosine, 3-(Hydroxynitrosoamino)-D,L-alanine]", "values": [{"measurement": "IMP levels", "setting": "ADSS [2]", "value": "dose-dependent increase"}]}
{"smiles": "N[C@@H](CN(O)N=O)C(=O)O", "note": "[L-alanosine, L-2-amino-3-(N-hydroxy-N-nitrosamino) propionic acid]", "values": [{"measurement": "IMP levels", "setting": "ADSS [2]", "value": "dose-dependent increase"}, {"measurement": "levels of ADP", "setting": "ADSS [3]", "value": "decreased"}, {"measurement": "levels of AMP", "setting": "ADSS [3]", "value": "decreased"}, {"measurement": "levels of IMP", "setting": "ADSS [3]", "value": "increased"}, {"measurement": "levels of aminoimidazole carboxamide ribotide (AICAR)", "setting": "ADSS [3]; metabolite upstream of ADSS", "value": "not affected"}, {"measurement": "S-Ado levels", "setting": "ADSS [4]", "value": "decreased"}]}
